# Patent US20250163047A1, “HETEROCYCLIC COMPOUNDS, COMPOSITIONS THEREOF, AND METHODS OF TREATMENT THEREWITH” (BeiGene, Ltd., priority 2022, published 2025)
# pIC50: −log10 of the molar value.
# What was measured:
# [1] = target: T1, Cbl (aa49-434) (Homo sapiens, UniProt P22681); test: Co-expressed Cbl with BirA biochemical assay (CBL/E2-Ub binding, HTRF); settings: 0.6 nM Cbl co-expressed with BirA, read-out: co-express CBL/E2-Ub-binding assay IC50
# T1 construct: Cbl (aa49-434, in-house); made in house
# T1 sequence (P22681 49-434): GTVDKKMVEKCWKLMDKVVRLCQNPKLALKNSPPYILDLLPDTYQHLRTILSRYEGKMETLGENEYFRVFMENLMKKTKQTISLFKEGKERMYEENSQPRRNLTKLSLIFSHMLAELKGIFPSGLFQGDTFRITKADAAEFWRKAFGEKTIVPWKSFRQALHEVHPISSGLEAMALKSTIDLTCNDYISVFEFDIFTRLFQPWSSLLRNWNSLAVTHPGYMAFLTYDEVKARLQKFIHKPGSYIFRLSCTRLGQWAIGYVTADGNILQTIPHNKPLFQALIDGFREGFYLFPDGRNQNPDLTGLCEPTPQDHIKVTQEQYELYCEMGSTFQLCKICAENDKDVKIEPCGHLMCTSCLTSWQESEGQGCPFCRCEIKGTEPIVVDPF
# Source text: (§1) The assay in the absence of a Cbl-b/Cbl inhibitor, where phosphorylation of Cbl-b/Cbl by the Src kinase allows UbcH5B-Ub to bind to Cbl-b/Cbl and brings the Bodipy-Fluorescein tagged ubiquitin in proximity to the streptavidin-terbium bound to the N-terminal biotinylated Avi-tagged Cbl-b/Cbl. […] The lack of a FRET signal indicates Cbl-b/Cbl is inhibited by the Cbl-b/Cbl inhibitor.
# [2] = target: T2, Cbl-b (aa36-427) (Homo sapiens, UniProt Q13191); test: Co-expressed Cbl-b with BirA biochemical assay (CBLB/E2-Ub binding, HTRF); settings: 0.6 nM Cbl-b co-expressed with BirA, HTRF; read-out: co-express CBLB/E2-Ub-binding assay IC50
# T2 construct: Cbl-b (aa36-427, in-house); made in house
# Source text: as §1
# T2 sequence (Q13191 36-427): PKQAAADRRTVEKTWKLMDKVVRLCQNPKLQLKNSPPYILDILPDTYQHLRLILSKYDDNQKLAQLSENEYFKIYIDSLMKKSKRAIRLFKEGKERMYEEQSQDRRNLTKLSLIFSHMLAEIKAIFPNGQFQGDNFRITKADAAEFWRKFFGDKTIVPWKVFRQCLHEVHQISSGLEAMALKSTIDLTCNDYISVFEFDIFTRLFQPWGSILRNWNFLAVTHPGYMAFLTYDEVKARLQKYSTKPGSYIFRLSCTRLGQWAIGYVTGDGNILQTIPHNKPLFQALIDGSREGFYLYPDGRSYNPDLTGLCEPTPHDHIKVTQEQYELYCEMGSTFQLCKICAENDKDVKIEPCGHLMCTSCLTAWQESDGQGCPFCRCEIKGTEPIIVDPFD
pIC50 [1],pIC50 [2],SMILES
8.72,9.05,"Cn1cnnc1[C@]1(c2cncc(NC(=O)c3cc(CNCC4CCC4)c4ccsc4n3)c2)C[C@H](C)C1 [Compound B15, 4-(((cyclobutylmethyl)amino)methyl)-N-(5-((1s, 3s)-3-methyl-1-(4-methyl-4H-1,2,4-triazol-3-yl)cyclobutyl)pyridin-3-yl)thieno[2,3-b]pyridine-6-carboxamide]"
8.14,8.60,"C[C@H](NCc1cc(C(=O)Nc2cccc([C@]3(c4nncn4C)C[C@@H](C)C3)c2)nc2c1CCC2(F)F)C1CCC1 [Compound C59, 4-((((S)-1-cyclobutylethyl)amino)methyl)-7,7-difluoro-N-(3-((1s,3R)-3-methyl-1-(4-methyl-4H-1,2,4-triazol-3-yl)cyclobutyl)phenyl)-6,7-dihydro-5H-cyclopenta[b]pyridine-2-carboxamide]"
8.00,8.89,"C[C@H](NCc1cc(C(=O)Nc2cccc([C@]3(c4nncn4C)C[C@@H](CC#N)C3)c2)nc2c1CCC2(F)F)C1CC1 [Compound C43, N-(3-((1s,3R)-3-(cyanomethyl)-1-(4-methyl-4H-1,2,4-triazol-3-yl)cyclobutyl)phenyl)-4-((((S)-1-cyclopropylethyl)amino)methyl)-7,7-difluoro-6,7-dihydro-5H-cyclopenta[b]pyridine-2-carboxamide]"
8.33,8.68,"C[C@H](NCc1cc(C(=O)Nc2cncc([C@]3(c4nncn4C)C[C@@H](C)C3)c2)nc2sccc12)C1CCC1 [Compound B42, 4-({[(1S)-1-cyclobutylethyl]amino}methyl)-N-{5-[(1r, 3s)-3-methyl-1-(4-methyl-1,2,4-triazol-3-yl)cyclobutyl]pyridin-3-yl}thieno[2,3-b]pyridine-6-carboxamide]"

# Continued, molecule first:
SMILES,pIC50 [1],pIC50 [2]
"Cc1cnc2c(C(=O)Nc3cccc([C@]4(c5nncn5C)C[C@@H](CC#N)C4)c3)cc(CN3CCC[C@H](C)C3)cn12 [Compound A10, 3-methyl-6-{[(3S)-3-methylpiperidin-1-yl]methyl}-N-{3-[(1s, 3s)-3-(cyanomethyl)-1-(4-methyl-1,2,4-triazol-3-yl)cyclobutyl]phenyl}imidazo[1,2-a]pyridine-8-carboxamide]",7.15,7.92
"Cc1cnc2c(C(=O)Nc3cncc([C@]4(c5nncn5C)C[C@@H](C)C4)c3)cc(CN3CC[C@H](F)[C@H](C)C3)cn12 [Compound A55, 6-{[(3R,4S)-4-fluoro-3-methylpiperidin-1-yl]methyl}-3-methyl-N-{5-[(1r, 3s)-3-methyl-1-(4-methyl-1,2,4-triazol-3-yl)cyclobutyl]pyridin-3-yl}imidazo[1,2-a]pyridine-8-carboxamide]",8.17,8.54
"CC(C)CNCc1cc(C(=O)Nc2cccc([C@]3(c4nncn4C)C[C@@H](C)C3)c2)c2ncc(F)n2c1 [Compound A62, 3-fluoro-6-((isobutylamino)methyl)-N-(3-((1s, 3s)-3-methyl-1-(4-methyl-4H-1,2,4-triazol-3-yl)cyclobutyl)phenyl)imidazo[1,2-a]pyridine-8-carboxamide]",8.15,8.96
"Cn1cnnc1[C@]1(c2cccc(NC(=O)c3cc(CNC4(C)CC4)cc4ccnn34)c2)C[C@H](C)C1 [Compound A91, N-(3-((1s, 3s)-3-methyl-1-(4-methyl-4H-1,2,4-triazol-3-yl)cyclobutyl)phenyl)-5-(((1-methylcyclopropyl)amino)methyl)pyrazolo[1,5-a]pyridine-7-carboxamide]",8.39,9.22
"Cn1cnnc1[C@]1(c2cccc(NC(=O)c3cc(CNCC4(C)CCC4)cn4c(Cl)cnc34)c2)C[C@H](CC#N)C1 [Compound A35, 3-chloro-N-(3-((1s, 3s)-3-(cyanomethyl)-1-(4-methyl-4H-1,2,4-triazol-3-yl)cyclobutyl)phenyl)-6-((((1-methylcyclobutyl)methyl)amino)methyl)imidazo[1,2-a]pyridine-8-carboxamide]",7.89,8.66
